Measured values: patent publication US9205121B2, “Echinacea formulation” (Integria Healthcare (Australia) PTY LTD, priority 2004, dated 2015)

Assays:
[1] = test system: human liver microsomes; type: in vitro ADME
Procedure: Livers were obtained from organ donors according to procedures is approved by the University of Queensland ethics committees. Samples of human liver were frozen in liquid nitrogen and stored at −70° C. prior to use. Microsomes were prepared according to the method of Guengerich except that microsomes were subjected to a final wash in 10 mM Tris-acetate, 1 mM EDTA and 20% glycerol pH 7.4 (resuspension buffer) to remove residual drugs (e.g. phenytoin—data not shown) present in donor livers.
Incubations (0.5 mL) with tissue fractions contained either the microsomal fraction at […] or the cytosolic fraction at 5 mg/mL protein in 100 mM potassium phosphate (pH 7.4) supplemented with is substrates (synthetic alkylamides 6, 11, 3 and 12 or the alkylamide fraction from the ethanolic liquid as required—see Figure legends for concentrations used) added from ethanolic stocks. Final ethanol concentrations were either 0.70% or 0.96% and were consistent in each assay. Reactions were initiated by the addition of an NADPH-generating system consisting of (final concentrations) […] NADP+, 10 mM glucose-6-phosphate and 0.5 μ/mL glucose-6-phosphate dehydrogenase. Negative controls and cytosolic incubations lacked an NADPH-generating system. Reaction mixtures were incubated at 37° C. with gentle agitation for the duration of each experiment. Reactions were terminated by addition of an equal volume of 100% methanol to a sample aliquot. Diluted samples were then centrifuged at 16000×g for 2 minutes and supernatants stored at −20° C. until analysis by LCMS.
Alkylamide concentrations in samples were determined by LCMS using a gradient HPLC system (Shimadzu LC1OAT) coupled to a quadrupole mass spectrometer (Shimadzu, QP8000a) operating in positive SIM mode with an APCI interface. The mobile phases were a mixture of water and acetonitrile. Alkylamides 6 and 3 were detected using a 65% acetonitrile isocratic run. Alkylamides 11 and 12 were detected using an 85% acetonitrile isocratic run. The alkylamide fraction was analysed using a gradient that increased from 20% to 40% acetonitrile over the first 5 minutes, then to 80% acetonitrile over the following 15 minutes and to 100% over the next 3 minutes followed by a re-equilibration period at 20% acetonitrile prior to the next injection. A similar gradient was used in scan and then SIM (M+1 of 248, 264, 246, 192, 280 and 282) modes to identify metabolites of 3. A C18, 3 m, 100×2.00 mm Phenomenex Luna column was used with a solvent flow rate of 0.3 mL/minute. All alkylamides were linear in the range 0.001-10 mg/mL (R^2>0.9) with a coefficient of variation between 4 and 5.
A number of pure, synthetic alkylamides (6, 11 3 and 12 as shown in FIG. 1) as well as the complex mixture of alkylamides obtained from an ethanolic extract of Echinacea were investigated for their susceptibility to liver P450-mediated degradation in microsomal preparations from four different subjects. The concentration of each substrate remaining at the given time points was quantified with LCMS and rates of substrate depletion were calculated as a percentage of the original concentration. […] From FIG. 3 it can be seen that there was a clear difference in the ability of the liver microsomal P450s to metabolise the synthetic 2-ene and the 2,4-diene alkylamides. […] In contrast, the 2,4-dienes were rapidly metabolised with only 9±2% of the original concentration of 3 and 2±1% of the original concentration of 12 detected after 2 hours. […]

[2] = test system: TNF-α; assay: TNF-α production under LPS stimulated conditions in macrophages; type: cell-based, mouse; conditions: RAW 264.7 macrophages
From the text: Macrophages play an essential role in the development of specific and non-specific immune responses. Upon activation by a variety of stimuli macrophages release a number of products having biological activity. Such products include cytokines, such as TNF-α, […] and nitric oxide (NO). Macrophages undergo a process of cellular “activation” which is associated with morphological, functional, and biochemical changes in the cells in response to inflammatory signals or antigens. One prominent characteristic of activated macrophages is their increased capacity to release pro-inflammatory and cytotoxic mediators, which help aid in the resolution of infection or inflammation. As a prelude to macrophage activation LPS must bind to a receptor on the macrophage cell surface. Several LPS receptors have been identified in different macrophages with the most thoroughly studied receptor being the CD14 receptor.
The synthetic alkylamides correspond to the major 2-ene and 2,4-diene alkylamides found in Echinacea. These alkylamides are illustrated in FIG. 1 as compounds 6 and 3 respectively.

[3] = test system: phagocytosis; conditions: in vitro and in vivo; cited from earlier work

## C#CC#CCCCC/C=C/C(=O)NCC(C)C [alkylamide 6, (2E)-N-isobutylundeca-2-ene-8,10-diynamide]
[1]; human, 2 h, pH 7.4
  % of initial levels still present: 91±24%

## CC#CC#CCCCC/C=C/C(=O)NCC(C)C [alkylamide 11, (2E)-N-isobutyldodeca-2-ene-8,10-diynamide]
[1]
  rate of alkylamide metabolism relative to the rate found for 6: two fold higher

## CCCCCCC/C=C/C=C/C(=O)NCC(C)C [alkylamide 12, (2E-4E)-N-isobutyldodea-2,4-dienamide]
[1]
  rate of alkylamide metabolism relative to the rate found for 6: ten fold higher

## O=C(/C=C/c1ccc(O)c(O)c1)O[C@@H](C(=O)O)[C@@H](OC(=O)/C=C/c1ccc(O)c(O)c1)C(=O)O [cichoric acid]
[2]
  TNF-α production under LPS stimulated conditions: significantly decreased
[3]
  stimulation of phagocytosis: marked stimulation
